From patent US20230265116A1, “DEGRADATION OF (EGFR) BY CONJUGATION OF EGFR INHIBITORS WITH E3 LIGASE LIGAND AND METHODS OF USE” (BEIGENE, LTD., priority 2020, published 2023)
Where two headings read alike, the source gives them in different places.

How the values were obtained:
[1] = target: T1, EGFR L858R/T790M/C797S (BaF3-LTC cells) (Homo sapiens, UniProt P00533, C797S/L858R/T790M); assay: EGFR degradation HTRF assay, BaF3-LTC cells; assay type: cell-based
T1 construct: expressed in transfected cells; host or cells: BaF3
T1 sequence (P00533 25-1210 T790M/C797S/L858R): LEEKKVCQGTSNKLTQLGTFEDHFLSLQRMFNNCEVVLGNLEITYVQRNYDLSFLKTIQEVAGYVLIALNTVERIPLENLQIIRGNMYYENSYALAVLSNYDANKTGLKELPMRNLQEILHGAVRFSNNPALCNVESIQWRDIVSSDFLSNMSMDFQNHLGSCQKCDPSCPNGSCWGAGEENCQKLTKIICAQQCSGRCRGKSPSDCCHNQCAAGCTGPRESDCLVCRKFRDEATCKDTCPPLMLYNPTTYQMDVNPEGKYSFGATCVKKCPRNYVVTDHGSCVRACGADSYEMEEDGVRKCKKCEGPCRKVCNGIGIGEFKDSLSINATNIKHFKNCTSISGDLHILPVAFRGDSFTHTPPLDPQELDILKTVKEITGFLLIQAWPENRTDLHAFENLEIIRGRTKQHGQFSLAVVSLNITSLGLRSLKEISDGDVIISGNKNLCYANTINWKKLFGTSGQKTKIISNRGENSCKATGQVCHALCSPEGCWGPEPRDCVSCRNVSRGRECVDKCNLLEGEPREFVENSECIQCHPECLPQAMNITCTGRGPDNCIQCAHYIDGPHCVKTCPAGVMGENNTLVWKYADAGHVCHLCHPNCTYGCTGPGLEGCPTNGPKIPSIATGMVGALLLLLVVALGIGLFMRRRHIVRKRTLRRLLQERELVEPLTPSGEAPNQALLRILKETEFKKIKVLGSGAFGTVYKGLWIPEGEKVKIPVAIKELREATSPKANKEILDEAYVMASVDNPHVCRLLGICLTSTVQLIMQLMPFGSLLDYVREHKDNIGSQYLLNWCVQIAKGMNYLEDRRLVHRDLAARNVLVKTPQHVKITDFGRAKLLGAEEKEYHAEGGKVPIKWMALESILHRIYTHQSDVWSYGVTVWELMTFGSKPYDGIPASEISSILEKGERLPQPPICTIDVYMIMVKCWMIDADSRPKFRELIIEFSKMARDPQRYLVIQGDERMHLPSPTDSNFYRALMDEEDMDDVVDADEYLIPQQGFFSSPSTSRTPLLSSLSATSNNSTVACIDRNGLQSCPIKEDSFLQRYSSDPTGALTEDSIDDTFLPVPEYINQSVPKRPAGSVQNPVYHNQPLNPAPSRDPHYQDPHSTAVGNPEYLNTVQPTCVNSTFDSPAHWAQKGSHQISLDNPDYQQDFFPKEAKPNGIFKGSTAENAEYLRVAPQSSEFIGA
Procedure, shortened: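 EGFR remaining after a 16 h, 37 °C exposure (8 doses, 5-fold steps from 10 uM final, 0.2% DMSO) was quantified by HTRF antibodies in cell lysate. Percent inhibition relative to DMSO control was fitted by four-parameter logistic to give DC50; Dmax denotes maximal degradation.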

[2] = system: EGFR Del19/T790M/C797S (H1975-clone #28); assay: EGFR degradation HTRF assay, H1975-clone #28 DTC cells; assay type: cell-based
Procedure, shortened: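 Cells were dosed on day 2 with an 8-point, 5-fold dilution series starting at 10 uM final and incubated 16h at 37° C. After lysis for 1 hour, HTRF antibodies were added overnight at room temperature and the plate was read at 665/620 nm. Degradation was normalised to DMSO wells and fitted for DC50 and Dmax.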

[3] = BaF3-LTC cells; EGFR degradation, IC50 (DC50) from curve fit; read-out: DC50(nM) BaF3-LTC
[4] = BaF3-LTC cells; maximum percentage of inhibition (degradation); read-out: Dmax (%) BaF3-LTC
[5] = H1975 # 28 DTC cells; EGFR degradation, IC50 (DC50) from curve fit; read-out: DC50(nM) H1975 # 28 DTC
[6] = H1975 # 28 DTC cells; maximum percentage of inhibition (degradation)
[7] = read-out: DC50(nM) BaF3-LTC; BaF3-LTC cells; EGFR degradation, IC50 (DC50) from curve fit
[8] = read-out: DC50(nM) H1975 # 28 DTC; H1975 # 28 DTC cells; EGFR degradation, IC50 (DC50) from curve fit

Structure (SMILES)	DC50 [1, 3] [nM]	Dmax [1, 4] [%]	DC50 [2, 5] [nM]	Dmax (%) H1975 # 28 DTC [2, 6] [%]	DC50 [1, 7] [nM]	Dmax ([1]; read-out: Dmax (%) BaF3-LTC, BaF3-LTC cells; maximum percentage of inhibition (degradation)) [%]	DC50 [2, 8] [nM]	Dmax (%) BaF3-LTC ([1]; BaF3-LTC cells; maximum percentage of inhibition (degradation)) [%]
CCc1ccc2c(P(C)(C)=O)c(Nc3nc(Nc4cc(CC)c(N5CCC(N6CCN(CC7CN(c8cccc9c8oc(=O)n9C8CCC(=O)NC8=O)C7)CC6)CC5)cc4OC)ncc3Br)ccc2n1 (centres unmarked) [Example 448, 3-(7-(3-((4-(1-(4-((5-bromo-4-((5-(dimethylphosphoryl)-2-ethylquinolin-6-yl)amino)pyrimidin-2-yl)amino)-2-ethyl-5-methoxyphenyl)piperidin-4-yl)piperazin-1-yl)methyl)azetidin-1-yl)-2-oxobenzo[d]oxazol-3(2H)-yl)piperidine-2,6-dione]	6.92	89.5	0.962	83.19				
CCc1cc(Nc2ncc(Br)c(Nc3ccc4nc(C)ccc4c3P(C)(C)=O)n2)c(OC)cc1N1CCC(N2CCN(C(=O)C3CN(c4cccc5c4oc(=O)n5C4CCC(=O)NC4=O)C3)CC2)CC1 (centres unmarked) [Example 519, 3-(7-(3-(4-(1-(4-((5-bromo-4-((5-(dimethylphosphoryl)-2-methylquinolin-6-yl)amino)pyrimidin-2-yl)amino)-2-ethyl-5-methoxyphenyl)piperidin-4-yl)piperazine-1-carbonyl)azetidin-1-yl)-2-oxobenzo[d]oxazol-3(2H)-yl)piperidine-2,6-dione]				74.38	1.19	92.1	0.378	
CCOc1cc(N2CCC(N3CCN(CCc4ccc(F)c5c4oc(=O)n5C4CCC(=O)NC4=O)CC3)CC2)c(CC)cc1Nc1ncc(Br)c(Nc2cc(F)c3nc(CC)ccc3c2P(C)(C)=O)n1 (centres unmarked) [Example 592, 3-(7-(2-(4-(1-(4-((5-bromo-4-((5-(dimethylphosphoryl)-2-ethyl-8-fluoroquinolin-6-yl)amino)pyrimidin-2-yl)amino)-5-ethoxy-2-ethylphenyl)piperidin-4-yl)piperazin-1-yl)ethyl)-4-fluoro-2-oxobenzo[d]oxazol-3(2H)-yl)piperidine-2,6-dione]	12.5	83.7	1.18	82.2				
CCc1ccc2c(P(C)(C)=O)c(Nc3nc(Nc4cc(CC)c(N5CCC(N6CCN(CC7CN(c8cc(F)c(C9CCC(=O)NC9=O)c(F)c8)C7)CC6)CC5)cc4OC)ncc3Br)ccc2n1 (centres unmarked) [Example 508, 3-(4-(3-((4-(1-(4-((5-bromo-4-((5-(dimethylphosphoryl)-2-ethylquinolin-6-yl)amino)pyrimidin-2-yl)amino)-2-ethyl-5-methoxyphenyl)piperidin-4-yl)piperazin-1-yl)methyl)azetidin-1-yl)-2,6-difluorophenyl)piperidine-2,6-dione]	14.7	89.3	1	72.7				
CCOc1cc(N2CCC(N3CCN(CCc4cc5oc(=O)n(C6CCC(=O)NC6=O)c5cc4C)CC3)CC2)c(CC)cc1Nc1ncc(Br)c(Nc2ccc3c(=O)n(CC)ncc3c2P(C)(C)=O)n1 (centres unmarked) [Example 554, 3-(6-(2-(4-(1-(4-((5-bromo-4-((5-(dimethylphosphoryl)-2-ethyl-1-oxo-1,2-dihydrophthalazin-6-yl)amino)pyrimidin-2-yl)amino)-5-ethoxy-2-ethylphenyl)piperidin-4-yl)piperazin-1-yl)ethyl)-5-methyl-2-oxobenzo[d]oxazol-3(2H)-yl)piperidine-2,6-dione]	2.49	91.9	0.662	67.4				
COc1cc(N2CCC(N3CCN(C(=O)[C@@H]4CCN(c5cc(F)c([C@H]6CCC(=O)NC6=O)c(F)c5)C4)CC3)CC2)c(C)cc1Nc1ncc(Br)c(Nc2ccc3c(=O)n(C)ncc3c2P(C)(C)=O)n1 [Example 527, (R)-3-(4-((R)-3-(4-(1-(4-((5-bromo-4-((5-(dimethylphosphoryl)-2-methyl-1-oxo-1,2-dihydrophthalazin-6-yl)amino)pyrimidin-2-yl)amino)-5-methoxy-2-methylphenyl)piperidin-4-yl)piperazine-1-carbonyl)pyrrolidin-1-yl)-2,6-difluorophenyl)piperidine-2,6-dione]	1.77	93.4	0.583	85.27				
CCc1cc(Nc2ncc(Br)c(Nc3ccc4nc(C)ccc4c3P(C)(C)=O)n2)c(OC)cc1N1CCC(N2CCN(C3CCN(c4cc(F)c(C5CCC(=O)NC5=O)c(F)c4)CC3)CC2)CC1 (centres unmarked) [Example 694, 3-(4-(4-(4-(1-(4-((5-bromo-4-((5-(dimethylphosphoryl)-2-methylquinolin-6-yl)amino)pyrimidin-2-yl)amino)-2-ethyl-5-methoxyphenyl)piperidin-4-yl)piperazin-1-yl)piperidin-1-yl)-2,6-difluorophenyl)piperidine-2,6-dione]	16.1	92.2	0.986	68.67				
CCc1cc(Nc2ncc(Br)c(Nc3ccc4nc(C)ccc4c3P(C)(C)=O)n2)c(OC)cc1N1CCC(N2CCN(C(=O)Cc3cc(F)c([C@H]4CCC(=O)NC4=O)c(F)c3)CC2)CC1 [Example 670, (R)-3-(4-(2-(4-(1-(4-((5-bromo-4-((5-(dimethylphosphoryl)-2-methylquinolin-6-yl)amino)pyrimidin-2-yl)amino)-2-ethyl-5-methoxyphenyl)piperidin-4-yl)piperazin-1-yl)-2-oxoethyl)-2,6-difluorophenyl)piperidine-2,6-dione]	3.37	88.3	0.634	83.95				
CCOc1cc(N2CCC(N3CCN(CCc4cc(F)c([C@H]5CCC(=O)NC5=O)c(F)c4)CC3)CC2)c(CC)cc1Nc1ncc(Br)c(Nc2ccc3nc(C)ncc3c2P(C)(C)=O)n1 [Example 738, (R)-3-(4-(2-(4-(1-(4-((5-bromo-4-((5-(dimethylphosphoryl)-2-methylquinazolin-6-yl)amino)pyrimidin-2-yl)amino)-5-ethoxy-2-ethylphenyl)piperidin-4-yl)piperazin-1-yl)ethyl)-2,6-difluorophenyl)piperidine-2,6-dione]	6.73		0.64	84.3				
CCc1ccc2c(P(C)(C)=O)c(Nc3nc(Nc4cc(CC)c(N5CCC(N6CCN(C(=O)CN7CCN(c8cc(F)c([C@H]9CCC(=O)NC9=O)c(F)c8)CC7)CC6)CC5)cc4OC)ncc3Br)ccc2n1 [Example 665, (R)-3-(4-(4-(2-(4-(1-(4-((5-bromo-4-((5-(dimethylphosphoryl)-2-ethylquinolin-6-yl)amino)pyrimidin-2-yl)amino)-2-ethyl-5-methoxyphenyl)piperidin-4-yl)piperazin-1-yl)-2-oxoethyl)piperazin-1-yl)-2,6-difluorophenyl)piperidine-2,6-dione]	1.49	97.9	0.543	85.47				
CCOc1cc(N2CCC(N3CCN(C(=O)[C@@H]4CCN(c5cccc6c5oc(=O)n6C5CCC(=O)NC5=O)C4)CC3)CC2)c(CC)cc1Nc1ncc(Br)c(Nc2ccc3nc(CC)ccc3c2P(C)(C)=O)n1 (stereo partly drawn) [Example 478, 3-(7-((R)-3-(4-(1-(4-((5-bromo-4-((5-(dimethylphosphoryl)-2-ethylquinolin-6-yl)amino)pyrimidin-2-yl)amino)-5-ethoxy-2-ethylphenyl)piperidin-4-yl)piperazine-1-carbonyl)pyrrolidin-1-yl)-2-oxobenzo[d]oxazol-3(2H)-yl)piperidine-2,6-dione]				80.49	3.05		0.645	88.22
COc1cc(N2CCC(N3CCN(C(=O)[C@@H]4CCN(c5cc(F)c([C@H]6CCC(=O)NC6=O)c(F)c5)C4)CC3)CC2)c(C)cc1Nc1ncc(Br)c(Nc2ccc3nc(C)c(F)cc3c2P(C)(C)=O)n1 [Example 732, (R)-3-(4-((R)-3-(4-(1-(4-((5-bromo-4-((5-(dimethylphosphoryl)-3-fluoro-2-methylquinolin-6-yl)amino)pyrimidin-2-yl)amino)-5-methoxy-2-methylphenyl)piperidin-4-yl)piperazine-1-carbonyl)pyrrolidin-1-yl)-2,6-difluorophenyl)piperidine-2,6-dione]	4.07		0.624	86.49				
CCc1cc(Nc2ncc(Br)c(Nc3ccc4c(=O)n(C)ncc4c3P(C)(C)=O)n2)c(OC)cc1N1CCC(N2CCN(C(=O)C3CN(c4cc(F)c(C5CCC(=O)NC5=O)c(F)c4)C3)CC2)CC1 (centres unmarked) [Example 520, 3-(4-(3-(4-(1-(4-((5-bromo-4-((5-(dimethylphosphoryl)-2-methyl-1-oxo-1,2-dihydrophthalazin-6-yl)amino)pyrimidin-2-yl)amino)-2-ethyl-5-methoxyphenyl)piperidin-4-yl)piperazine-1-carbonyl)azetidin-1-yl)-2,6-difluorophenyl)piperidine-2,6-dione]	5.66	90.1	0.769	73.99				
